We go through one compound from patent US5627152A, “Method for increasing bodyweight” (Telluride Pharmaceutical Corporation, priority 1995, dated 1997).

In one data set the test system is guinea pigs. The settings on record: high doses; cited from earlier work.
Data set [1] is described as follows: Oral glutathione capsules in healthy subjects: bodyweight and percent bodyfat by the caliper method. The settings on record: for percentage bodyfat at end of treatment: caliper method. Type of data set: in vivo, human. As to the method:
A healthy subject who wished to gain more weight in the form of lean muscle tissue, was treated for five weeks with one capsule containing 250 mg glutathione four times daily resulting in a total daily dosage of 1000 mg glutathione.
A healthy subject who wished to add bodyweight in the form of lean muscle, was treated for seven weeks with one capsule containing 500 mg of glutathione, four times per day. The totally daily dose was 2,000 mg of glutathione.
A […] healthy male subject who wished to add bodyweight in the form of lean muscle, was treated for seven weeks with two capsule of 500 mg of glutathione, three times per day. The totally daily dose was 3,000 mg of glutathione.
A healthy subject who wished to add bodyweight in the form of lean muscle was treated for six weeks with two capsules containing 500 mg of glutathione, twice daily. The totally daily dose was 2,000 mg of glutathione.

`N[C@@H](CCC(=O)N[C@@H](CS)C(=O)NCC(=O)O)C(=O)O` [glutathione, -L-glutamyl-cysteinylglycine]: in the data set on guinea pigs, the “effect on bodyweight (cachexia)” value is on record as “promote cachexia”. In addition, the “percentage bodyfat at end of treatment” value is on record as 18.6% in data set [1] (Example 1: 1000 mg/day, five weeks, start 20.1%); 22.3% in data set [1] (Example 2: 2,000 mg/day, seven weeks, start 24.9%); 15.1% in data set [1] (Example 3: 3,000 mg/day, seven weeks, start 18.5%); 14.9% in data set [1] (Example 4: 2,000 mg/day, six weeks, start 17.2%). Besides, the “fat at end of treatment” value in data set [1] (Example 1: 1000 mg/day, five weeks, start 25 pounds) turned out to be 24 pounds; in data set [1] (Example 2: 2,000 mg/day, seven weeks, start 55 pounds), 55 pounds; in data set [1] (Example 3: 3,000 mg/day, seven weeks, start 38 pounds) it was 36 pounds; in data set [1] (Example 4: 2,000 mg/day, six weeks, start 36 pounds), 36 pounds. In addition, the “muscle, bone and connective tissue at end of treatment” value in data set [1] (Example 1: 1000 mg/day, five weeks, start 100 pounds) worked out at 105 pounds; in data set [1] (Example 2: 2,000 mg/day, seven weeks, start 165 pounds), 193 pounds; in data set [1] (Example 3: 3,000 mg/day, seven weeks, start 165 pounds) it was 205 pounds; in data set [1] (Example 4: 2,000 mg/day, six weeks, start 176 pounds) it was 203 pounds. In addition, the “percent change in lean bodyweight (gain)” value in data set [1] (Example 1: 1000 mg/day, five weeks, without a change in diet or exercise regimen) is 5%. The “bodyweight at end of treatment” value in data set [1] (Example 1: healthy person, 250 mg capsule four times daily (1000 mg/day), five weeks, start 125 pounds) amounted to 129 pounds; in data set [1] (Example 2: healthy person, 500 mg capsule four times per day (2,000 mg/day), seven weeks, start 220 pounds) it was 248 pounds; in data set [1] (Example 3: healthy person, two 500 mg capsules three times per day (3,000 mg/day), seven weeks, start 203 pounds), 241 pounds; in data set [1] (Example 4: healthy person, two 500 mg capsules twice daily (2,000 mg/day), six weeks, start 212 pounds), 239 pounds. Besides, the “percent change in lean body weight” value in data set [1] (Example 2: 2,000 mg/day, seven weeks, without a change in diet or exercise regimen) is given as 17%; in data set [1] (Example 3: 3,000 mg/day, seven weeks, no change in diet or exercise regimen), 24.2%; in data set [1] (Example 4: 2,000 mg/day, six weeks, with a change in diet or exercise regimen (so in the source)) it was 15.3%.
